According to patent US8163771B2, “11 β-HSD1 modulators” (Exelixis, Inc., priority 2008, dated 2012):

Target: T1, recombinant human 11 β-HSD1 (Homo sapiens, UniProt P28845)
T1 construct: made in house; host or cells: E. coli
Experiment: 11 β-HSD1 SPA Assay (Scintillation Proximity Assay)
Format: biochemical
In short: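 E. coli-expressed human enzyme (30-100 nM) with tritiated cortisone 40 nM and NADPH 1 mM in HEPES buffer pH7.4, 2 hours at room temperature. Stopped with protein A SPA beads carrying anti-cortisol antibody and glycyrrhetinic acid; counted after overnight incubation. IC50 from percent inhibition between no-enzyme and no-compound signals.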

T1 sequence (P28845 whole entry): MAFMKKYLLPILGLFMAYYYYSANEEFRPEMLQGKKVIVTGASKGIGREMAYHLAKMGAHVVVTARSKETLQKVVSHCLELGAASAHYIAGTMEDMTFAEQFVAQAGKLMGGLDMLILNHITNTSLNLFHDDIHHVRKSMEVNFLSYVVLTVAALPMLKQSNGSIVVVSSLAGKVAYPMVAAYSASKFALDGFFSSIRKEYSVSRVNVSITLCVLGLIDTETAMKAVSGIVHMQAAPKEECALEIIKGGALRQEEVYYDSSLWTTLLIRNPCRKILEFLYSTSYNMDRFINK

Structure (SMILES) | IC50 [µM]
CC(C)(Oc1ccc(F)c(F)c1)C(=O)N[C@H]1C[C@H]2CC[C@@H](C1)N2c1ccc(C(=O)NCC(F)(F)F)cc1 [Example 210, 4-[3-endo-({2-[(3,4-difluorophenyl)oxy]-2-methylpropanoyl}amino)-8-azabicyclo[3.2.1]oct-8-yl]-N-(2,2,2-trifluoroethyl)benzamide] | < 0.2
CC(C)(Oc1ccc(Cl)cc1C(F)(F)F)C(=O)N[C@H]1C[C@H]2CC[C@@H](C1)N2c1ccc(S(N)(=O)=O)cn1 [Example 211, N-{8-[5-(aminosulfonyl)pyridin-2-yl]-8-azabicyclo[3.2.1]oct-3-endo-yl}-2-{[4-chloro-2-(trifluoromethyl)phenyl]oxy}-2-methylpropanamide] | < 0.2
Cc1ccc(OC(C)(C)C(=O)N[C@H]2C[C@H]3CC[C@@H](C2)N3c2ccc(S(C)(=O)=O)cn2)c(Cl)c1 [Example 212, 2-[(2-chloro-4-methylphenyl)oxy]-2-methyl-N-{8-[5-(methylsulfonyl)pyridin-2-yl]-8-azabicyclo[3.2.1]oct-3-endo-yl}propanamide] | < 0.2
Cc1ccc(OC(C)(C)C(=O)N[C@H]2C[C@H]3CC[C@@H](C2)N3c2ccc(S(N)(=O)=O)cn2)c(Cl)c1 [Example 213, N-{8-[5-(aminosulfonyl)pyridin-2-yl]-8-azabicyclo[3.2.1]oct-3-endo-yl}-2-[(2-chloro-4-methylphenyl)oxy]-2-methylpropanamide] | < 0.2
Cc1ccc(OC(C)(C)C(=O)N[C@H]2C[C@H]3CC[C@@H](C2)N3c2ccc(S(C)(=O)=O)cc2)c(Cl)c1 [Example 214, 2-[(2-chloro-4-methylphenyl)oxy]-2-methyl-N-{8-[4-(methylsulfonyl)phenyl]-8-azabicyclo[3.2.1]oct-3-endo-yl}propanamide] | < 0.2
CC(C)(Oc1ccc(F)c(Cl)c1Cl)C(=O)N[C@H]1C[C@H]2CC[C@@H](C1)N2c1ccc(S(N)(=O)=O)cn1 [Example 215, N-{8-[5-(aminosulfonyl)pyridin-2-yl]-8-azabicyclo[3.2.1]oct-3-endo-yl}-2-[(2,3-dichloro-4-fluorophenyl)oxy]-2-methylpropanamide] | < 0.2
CC(C)(Oc1cc(F)c(F)cc1F)C(=O)N[C@H]1C[C@H]2CC[C@@H](C1)N2c1ccc(S(N)(=O)=O)cn1 [Example 216, N-{8-[5-(aminosulfonyl)pyridin-2-yl]-8-azabicyclo[3.2.1]oct-3-endo-yl}-2-methyl-2-[(2,4,5-trifluorophenyl)oxy]propanamide] | < 0.2
Cc1cc(F)ccc1OC(C)(C)C(=O)N[C@H]1C[C@H]2CC[C@@H](C1)N2c1ccc(S(C)(=O)=O)cn1 [Example 217, 2-[(4-fluoro-2-methylphenyl)oxy]-2-methyl-N-{8-[5-(methylsulfonyl)pyridin-2-yl]-8-azabicyclo[3.2.1]oct-3-endo-yl}propanamide] | < 0.2
Cc1cc(F)ccc1OC(C)(C)C(=O)N[C@H]1C[C@H]2CC[C@@H](C1)N2c1ccc(S(N)(=O)=O)cn1 [Example 218, N-{8-[5-(aminosulfonyl)pyridin-2-yl]-8-azabicyclo[3.2.1]oct-3-endo-yl}-2-[(4-fluoro-2-methylphenyl)oxy]-2-methylpropanamide] | < 0.2
Cc1cc(F)ccc1OC(C)(C)C(=O)N[C@H]1C[C@H]2CC[C@@H](C1)N2c1ccc(S(C)(=O)=O)cc1 [Example 219, 2-[(4-fluoro-2-methylphenyl)oxy]-2-methyl-N-{8-[4-(methylsulfonyl)phenyl]-8-azabicyclo[3.2.1]oct-3-endo-yl}propanamide] | < 0.2
COc1cc(F)ccc1OC(C)(C)C(=O)N[C@H]1C[C@H]2CC[C@@H](C1)N2c1ccc(S(C)(=O)=O)cn1 [Example 220] | < 0.2
COc1cc(F)ccc1OC(C)(C)C(=O)N[C@H]1C[C@H]2CC[C@@H](C1)N2c1ccc(S(N)(=O)=O)cn1 [Example 221, N-{8-[5-(aminosulfonyl)pyridin-2-yl]-8-azabicyclo[3.2.1]oct-3-endo-yl}-2-{[4-fluoro-2-(methyloxy)phenyl]oxy}-2-methylpropanamide] | < 0.2
COc1cc(F)ccc1OC(C)(C)C(=O)N[C@H]1C[C@H]2CC[C@@H](C1)N2c1ccc(S(C)(=O)=O)cc1 [Example 222, 2-{[4-fluoro-2-(methyloxy)phenyl]oxy}-2-methyl-N-{8-[4-(methylsulfonyl)phenyl]-8-azabicyclo[3.2.1]oct-3-endo-yl}propanamide] | < 0.2
CC(C)(Oc1ccc(Cl)cc1F)C(=O)N[C@H]1C[C@H]2CC[C@@H](C1)N2c1ccc(S(C)(=O)=O)cc1 [Example 223, 2-[(4-chloro-2-fluorophenyl)oxy]-2-methyl-N-{8-[4-(methylsulfonyl)phenyl]-8-azabicyclo[3.2.1]oct-3-endo-yl}propanamide] | < 0.2
CC(C)(Oc1ccc(F)cc1F)C(=O)N[C@H]1C[C@H]2CC[C@@H](C1)N2c1ccc(S(C)(=O)=O)cc1 [Example 224, 2-[(2,4-difluorophenyl)oxy]-2-methyl-N-{8-[4-(methylsulfonyl)phenyl]-8-azabicyclo[3.2.1]oct-3-endo-yl}propanamide] | < 0.2
CC(C)(Oc1cc(F)c(F)cc1Cl)C(=O)N[C@H]1C[C@H]2CC[C@@H](C1)N2c1ccc(S(C)(=O)=O)cc1 [Example 225, 2-[(2-chloro-4,5-difluorophenyl)oxy]-2-methyl-N-{8-[4-(methylsulfonyl)phenyl]-8-azabicyclo[3.2.1]oct-3-endo-yl}propanamide] | < 0.2
CC(C)(Oc1ccc(F)c(Cl)c1)C(=O)N[C@H]1C[C@H]2CC[C@@H](C1)N2c1ccc(S(C)(=O)=O)cn1 [Example 226, 2-[(3-chloro-4-fluorophenyl)oxy]-2-methyl-N-{8-[5-(methylsulfonyl)pyridin-2-yl]-8-azabicyclo[3.2.1]oct-3-endo-yl}propanamide] | < 0.2
CC(C)(Oc1ccc(F)c(Cl)c1)C(=O)N[C@H]1C[C@H]2CC[C@@H](C1)N2c1ccc(S(N)(=O)=O)cn1 [Example 227, N-{8-[5-(aminosulfonyl)pyridin-2-yl]-8-azabicyclo[3.2.1]oct-3-endo-yl}-2-[(3-chloro-4-fluorophenyl)oxy]-2-methylpropanamide] | < 0.2
CC(C)(Oc1ccc(F)c(Cl)c1)C(=O)N[C@H]1C[C@H]2CC[C@@H](C1)N2c1ccc(S(C)(=O)=O)cc1 [Example 228, 2-[(3-chloro-4-fluorophenyl)oxy]-2-methyl-N-{8-[4-(methylsulfonyl)phenyl]-8-azabicyclo[3.2.1]oct-3-endo-yl}propanamide] | < 2
CC(C)(Oc1ccc(Cl)cc1F)C(=O)N[C@H]1C[C@H]2CC[C@@H](C1)N2c1ccc(S(C)(=O)=O)cn1 [Example 229, 2-[(4-chloro-2-fluorophenyl)oxy]-2-methyl-N-{8-[5-(methylsulfonyl)pyridin-2-yl]-8-azabicyclo[3.2.1]oct-3-endo-yl}propanamide] | < 0.2
CC(C)(Oc1ccc(F)cc1)C(=O)N[C@H]1C[C@H]2CC[C@@H](C1)N2c1ccc(S(C)(=O)=O)cn1 [Example 230, 2-[(4-fluorophenyl)oxy]-2-methyl-N-{8-[5-(methylsulfonyl)pyridin-2-yl]-8-azabicyclo[3.2.1]oct-3-endo-yl}propanamide] | < 2
CC(C)(Oc1cc(F)c(F)cc1Cl)C(=O)N[C@H]1C[C@H]2CC[C@@H](C1)N2c1ccc(S(C)(=O)=O)cn1 [Example 231, 2-[(2-chioro-4,5-difluorophenyl)oxy]-2-methyl-N-{8-[5-(methylsulfonyl)pyridin-2-yl]-8-azabicyclo[3.2.1]oct-3-endo-yl}propanamide] | < 0.2
